The source made the active and inactive calls. The calls are words filed in the database; no cut-off is given here.
What was measured:
RAW264.7 = assay: Suppression of LPS-induced NO production in mouse RAW264.7 cells treated for 2 hrs and followed by challenged with […] for 24 hrs by griess reagent; format: functional, cell-based
LLC-PK1 [1] = assay: Renoprotective activity against cisplatin-induced cytotoxicity in pig LLC-PK1 cells assessed as recovery of cell viability treated for 2 hrs and followed by challenged with cisplatin for 24 hrs by MTT assay; format: functional, cell-based; conditions: Sus scrofa
LLC-PK1 [2] = assay: Renoprotective activity against cisplatin-induced cytotoxicity in pig LLC-PK1 cells assessed as recovery of cell viability at 25 to 125 uM treated for 2 hrs and followed by challenged with cisplatin for 24 hrs by MTT assay; format: functional, cell-based; conditions: Sus scrofa
LLC-PK1 [3] = assay: Renoprotective activity against cisplatin-induced cytotoxicity in pig LLC-PK1 cells assessed as recovery of cell viability at 125 uM treated for 2 hrs and followed by challenged with cisplatin for 24 hrs by MTT assay; format: functional, cell-based; conditions: Sus scrofa
LLC-PK1 [4] = assay: Renoprotective activity against cisplatin-induced apoptosis in pig LLC-PK1 cells assessed as reduction in cisplatin-induced p53 level at 25 uM treated for 2 hrs and followed by challenged with cisplatin for 24 hrs by Western blot analysis; format: functional, cell-based; conditions: Sus scrofa
LLC-PK1 [5] = assay: Reduction in cisplatin-induced MAPK phosphorylation in pig LLC-PK1 cells at 25 uM treated for 2 hrs and followed by challenged with cisplatin for 24 hrs by Western blot analysis; format: cell-based; conditions: Sus scrofa
LLC-PK1 [6] = assay: Renoprotective activity against cisplatin-induced apoptosis in pig LLC-PK1 cells assessed as reduction in cisplatin-induced phosphorylated JNK at 25 uM treated for 2 hrs and followed by challenged with cisplatin for 24 hrs by Western blot analysis; format: functional, cell-based; conditions: Sus scrofa
LLC-PK1 [7] = assay: Renoprotective activity against cisplatin-induced apoptosis in pig LLC-PK1 cells assessed as reduction in cisplatin-induced phosphorylated p38 at 25 uM treated for 2 hrs and followed by challenged with cisplatin for 24 hrs by Western blot analysis; format: functional, cell-based; conditions: Sus scrofa
LLC-PK1 [8] = assay: Renoprotective activity against cisplatin-induced apoptosis in pig LLC-PK1 cells assessed as reduction in cisplatin-induced phosphorylated ERK at 25 uM treated for 2 hrs and followed by challenged with cisplatin for 24 hrs by Western blot analysis; format: functional, cell-based; conditions: Sus scrofa
LLC-PK1 [9] = assay: Renoprotective activity against cisplatin-induced apoptosis in pig LLC-PK1 cells assessed as reduction in cisplatin-induced dead and apoptotic cells at 25 uM treated for 2 hrs and followed by challenged with cisplatin for 24 hrs by annexin V/Tali image-based cytometry; format: functional, cell-based; conditions: Sus scrofa
LLC-PK1 [10] = assay: Renoprotective activity against cisplatin-induced cytotoxicity in pig LLC-PK1 cells assessed as recovery of cell viability at 25 uM treated for 2 hrs and followed by challenged with cisplatin for 24 hrs by MTT assay; format: functional, cell-based; conditions: Sus scrofa
LLC-PK1 [11] = assay: Renoprotective activity against cisplatin-induced apoptosis in pig LLC-PK1 cells assessed as reduction in cisplatin-induced cleaved caspase-3 at 25 uM treated for 2 hrs and followed by challenged with cisplatin for 24 hrs by Western blot analysis; format: functional, cell-based; conditions: Sus scrofa
LLC-PK1 [12] = assay: Renoprotective activity against cisplatin-induced cytotoxicity in pig LLC-PK1 cells assessed as recovery of cell viability at 2 to 25 uM treated for 2 hrs and followed by challenged with cisplatin for 24 hrs by MTT assay; format: functional, cell-based; conditions: Sus scrofa

Compound	inhibition (RAW264.7)	Activity (LLC-PK1 [1])	Activity (LLC-PK1 [2])	Activity (LLC-PK1 [3])	Activity (LLC-PK1 [4])	inhibition (LLC-PK1 [5])	Activity (LLC-PK1 [6])	Activity (LLC-PK1 [7])	Activity (LLC-PK1 [8])	Activity (LLC-PK1 [9])	Activity (LLC-PK1 [10])	Activity (LLC-PK1 [11])	Activity (LLC-PK1 [12])
COc1cccc(C(=O)/C=C/c2cc(OC)c(OC)cc2Br)c1	Dose-dependent effect	Dose-dependent effect	–	–	–	–	–	–	–	–	–	–	–
COc1ccc(C(=O)/C=C/c2cc(OC)c(Br)c(OC)c2)cc1OC	Dose-dependent effect	Dose-dependent effect	inactive	–	–	–	–	–	–	–	–	–	–
COc1ccc(/C=C/C(=O)c2ccc(Br)cc2)cc1OC	Dose-dependent effect	Dose-dependent effect	–	Active	–	–	–	–	–	–	–	–	–
COc1cc(Br)c(/C=C/C(=O)c2ccc(Br)cc2)cc1OC	Dose-dependent effect	Dose-dependent effect	–	–	Active	Active	Active	Active	Active	Active	Active	Active	Active
Cc1ccc(/C=C/C(=O)c2ccc(Cl)cc2)cc1	Dose-dependent effect	Dose-dependent effect	–	Active	–	–	–	–	–	–	–	–	–
COc1cccc(C(=O)/C=C/c2ccc(Cl)cc2)c1	Dose-dependent effect	Dose-dependent effect	–	–	Active	–	Active	Active	Active	Active	–	Active	–
